Experimental data: paper PMC11882969 (Nature Communications, 2025)
Values joined by “and” are separate entries in the source; they are usually repeats but may differ in a detail not shown here. Identical values can stand only once. Like-named read-outs stand apart in the source and are kept apart here.

What was measured:
[1] = Pharmacokinetics: plasma, brain, CSF; details: male, CD-1, mouse, 0.2 mg/kg; for concentration at 1 min / concentration at 5 min / concentration at 15 min / concentration at 30 min / concentration at 60 min / concentration at 120 min / concentration at 240 min / concentration at 360 min / concentration at 480 min: intraperitoneal
[2] = tested on: mice
Description: For all behavioral tests, the experimenter was always blind to treatment. Animals were first habituated for 30-60 min in Plexiglas cylinders and then tested 30 min after i.p. or i.t. injection of the compounds. The thermal (Hargreaves, hotplate and tail flick) and ambulatory (rotarod) tests were conducted as described[96]. Briefly, hindpaw thermal sensitivity was measured with a radiant heat source (Hargreaves) or on a hotplate at 52 °C. For the tail flick assay, sensitivity was measured by immersing the tail into a 50 °C water bath. For the ambulatory (rotarod) test, before testing with any compound, mice underwent three trainings on three consecutive days until they reach 300 sec. Each training has three sessions of five min each. Therapeutic window was calculated as the ratio of the minimum dose of side effect phenotype to the minimum dose of analgesic phenotype.

[3] = target: hCB1 (Homo sapiens, UniProt P21554); experiment: Radioligand competition binding at hCB1; set-up: host or cells: HEK293SL cells, transient PEI transfection; details: for radioligand binding, competition curve point (normalized): log[drug]
Chain of hCB1 (P21554 whole entry): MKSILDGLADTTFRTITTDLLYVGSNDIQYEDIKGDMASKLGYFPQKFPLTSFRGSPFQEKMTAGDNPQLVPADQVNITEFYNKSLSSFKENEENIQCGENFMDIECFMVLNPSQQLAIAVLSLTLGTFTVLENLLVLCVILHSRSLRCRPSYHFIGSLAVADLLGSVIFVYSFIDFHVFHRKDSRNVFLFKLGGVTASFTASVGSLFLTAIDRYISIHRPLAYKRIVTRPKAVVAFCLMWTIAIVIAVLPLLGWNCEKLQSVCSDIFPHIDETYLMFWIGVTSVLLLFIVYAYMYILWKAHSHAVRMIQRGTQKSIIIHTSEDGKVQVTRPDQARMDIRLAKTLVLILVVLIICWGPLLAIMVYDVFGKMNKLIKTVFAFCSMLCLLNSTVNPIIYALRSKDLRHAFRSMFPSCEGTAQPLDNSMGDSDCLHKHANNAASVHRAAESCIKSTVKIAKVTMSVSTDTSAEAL

[4] = target: hCB2 (Homo sapiens, UniProt P34972); experiment: Radioligand competition binding, HEK293 cells expressing human CB2R; set-up: expressed in transfected cells; host or cells: HEK293 cells stably expressing human CB2R (Laboratory of Ken Mackie); details: hCB2, log[drug], replicate columns
Chain of hCB2 (P34972 whole entry): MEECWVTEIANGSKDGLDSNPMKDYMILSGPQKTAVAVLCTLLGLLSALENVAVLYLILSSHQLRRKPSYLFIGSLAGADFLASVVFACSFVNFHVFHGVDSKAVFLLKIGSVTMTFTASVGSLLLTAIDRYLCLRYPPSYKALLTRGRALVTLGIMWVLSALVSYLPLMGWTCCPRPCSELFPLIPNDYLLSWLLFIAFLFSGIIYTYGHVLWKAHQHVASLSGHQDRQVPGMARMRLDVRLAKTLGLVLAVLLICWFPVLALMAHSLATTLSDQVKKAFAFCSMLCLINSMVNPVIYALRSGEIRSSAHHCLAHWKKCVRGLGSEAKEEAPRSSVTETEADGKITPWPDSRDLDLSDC

In the case of `COC(=O)[C@@](C)(NC(=O)c1cc(C)n(-c2cccc(C(F)(F)F)c2)n1)c1cccs1` [‘1350], the concentration at 1 min ([1]; CSF) is reported as 0 µg/mL, the concentration at 5 min ([1]; CSF) is reported as 1.2 ng/mL and the concentration at 15 min ([1]; CSF) is reported as 0 ng/mL. The concentration at 30 min ([1]; CSF) was 0 ng/mL, the concentration at 60 min ([1]; CSF) was 0 ng/mL and the concentration at 120 min ([1]; CSF) was 0 ng/mL. The concentration at 240 min ([1]; CSF) was 0 ng/mL, the concentration at 360 min ([1]; CSF) was 0 ng/mL and the concentration at 480 min ([1]; CSF) was 0.14 ng/mL. It also gave a concentration at 1 min ([1]; brain) of 0 ng/g, a concentration at 5 min ([1]; brain) of 8.24 ng/g and a concentration at 15 min ([1]; brain) of 41.8 ng/g. It also gave a concentration at 30 min ([1]; brain) of 29.5 ng/g, a concentration at 60 min ([1]; brain) of 44.1 ng/g and a concentration at 120 min ([1]; brain) of 33.1 ng/g. The concentration at 240 min ([1]; brain) was 4.35 ng/g, the concentration at 360 min ([1]; brain) was 8.81 ng/g and the concentration at 480 min ([1]; brain) was 2.87 ng/g. The half-life ([1]; brain, ip) was 1.87 h, the concentration at 1 min ([1]; plasma) was 0 µg/mL and the concentration at 5 min ([1]; plasma) was 6.41 ng/mL. For the same compound, the concentration at 15 min ([1]; plasma) was 10.8 ng/mL, the concentration at 30 min ([1]; plasma) was 5.48 ng/mL and the concentration at 60 min ([1]; plasma) was 7.25 ng/mL. It also gave a concentration at 120 min ([1]; plasma) of 6.15 ng/mL, a concentration at 240 min ([1]; plasma) of 0.376 ng/mL and a concentration at 360 min ([1]; plasma) of 1.1 ng/mL. The concentration at 480 min ([1]; plasma) was 0.486 ng/mL, the AUC(0-inf) ([1]; plasma, ip) was 0.0252 µg·h/mL and the Cmax ([1]; plasma, ip) was 10.8 ng/mL and 25 nM. The half-life ([1]; plasma, ip) was 1.85 h, the “therapeutic window, Acetone” value ([2]; Figure 6e, vs rotarod) was 10 and the “therapeutic window, Hot Plate” value ([2]; Figure 6e, vs rotarod) was 5. For the same compound, the “therapeutic window, Tail Flick” value ([2]; Figure 6e, vs rotarod) was 5, the “therapeutic window, analgesia vs catalepsy” value ([2]; Figure 6f) was “at least a ten-fold window” and the “therapeutic window, Acetone” value ([2]; Figure 6d, vs open field) was 4. The “therapeutic window, Hot Plate” value ([2]; Figure 6d, vs open field) was 2, the “therapeutic window, Tail Flick” value ([2]; Figure 6d, vs open field) was 2 and the “therapeutic window, analgesia vs hypolocomotion, sedation, catalepsy” value ([2]; mice) was 2-10 fold and 2-20 fold. For the same compound, the Ki [3] was 0.32 nM, the “radioligand binding, competition curve point (normalized)” value (“radioligand binding … (normalized)” below) ([3]; M = -6.64345, replicate columns) was 11.7845 and 1.336 and the “radioligand binding … (normalized)” value ([3]; M = -7.35666, replicate columns) was 11.2233 and 0.827. For the same compound, the “radioligand binding … (normalized)” value ([3]; M = -8.06987, replicate columns) was 12.4018 and 13.4224, the “radioligand binding … (normalized)” value ([3]; M = -8.78308, replicate columns) was 40.0112 and 26.5903 and the “radioligand binding … (normalized)” value ([3]; M = -9.49629, replicate columns) was 69.0236 and 54.2939. For the same compound, the “radioligand binding … (normalized)” value ([3]; M = -10.2095, replicate columns) was 97.7273 and 72.2328, the “radioligand binding … (normalized)” value ([3]; M = -11.9245, replicate columns) was 99.9439 and 88.4224 and the “radioligand binding … (normalized)” value ([3]; M = -13.6383, replicate columns) was 102.525 and 91.0941. For the same compound, the “radioligand binding … (normalized)” value ([4]; M = -6.64345) was 1.586 and -0.1332, the “radioligand binding … (normalized)” value ([4]; M = -7.35666) was 2.208 and 1.359 and the “radioligand binding … (normalized)” value ([4]; M = -8.06987) was 13.0908 and 10.365. The “radioligand binding … (normalized)” value ([4]; M = -8.78308) was 37.5933 and 37.49, the “radioligand binding … (normalized)” value ([4]; M = -9.49629) was 71.1443 and 45.0839 and the “radioligand binding … (normalized)” value ([4]; M = -10.2095) was 95.3669 and 77.3781. For the same compound, the “radioligand binding … (normalized)” value ([4]; M = -10.9227) was 103.545 and 89.3952 and the “radioligand binding … (normalized)” value ([4]; M = -11.6359) was 105.504 and 103.118.
